Consider twelve compounds from ChEMBL document CHEMBL5625262, “Discovery and first-time disclosure of CVN766, an exquisitely selective orexin 1 receptor antagonist” (Bioorg Med Chem Lett, 2024).

The target of data set [1] is T1, Orexin/Hypocretin receptor type 1 (Homo sapiens, UniProt O43613).
T1 sequence (O43613 whole entry): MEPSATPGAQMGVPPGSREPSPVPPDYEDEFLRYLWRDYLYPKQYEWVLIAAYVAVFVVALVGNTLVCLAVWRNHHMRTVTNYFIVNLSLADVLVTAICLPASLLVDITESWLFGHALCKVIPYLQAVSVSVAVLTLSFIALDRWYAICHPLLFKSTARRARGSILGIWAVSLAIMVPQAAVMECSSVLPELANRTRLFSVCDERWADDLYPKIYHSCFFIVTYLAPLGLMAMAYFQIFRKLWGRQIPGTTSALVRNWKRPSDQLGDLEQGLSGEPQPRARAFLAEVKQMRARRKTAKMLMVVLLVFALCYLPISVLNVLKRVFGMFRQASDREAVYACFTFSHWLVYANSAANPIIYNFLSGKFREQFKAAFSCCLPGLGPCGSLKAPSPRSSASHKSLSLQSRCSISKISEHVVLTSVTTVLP
Nature of the data set: Displacement of 3H-SB-674042 from human Ox1R expressed in CHO cell membranes by liquid scintillation counting method. More on the design: species or system Membrane.

In data set [2] the target is T1, Orexin/Hypocretin receptor type 1. As to the kind of experiment: Antagonist activity at human Ox1R overexpressed in rat Chem-1 cells assessed as inhibition of orexin A induced calcium flux preincubated for 15 mins followed by orexin A addition by FLIPR analysis. Format: functional, cell-based.
For data set [3], the target named is T2, Orexin receptor type 2 (Homo sapiens) (UniProt O43614).
T2 sequence (whole entry): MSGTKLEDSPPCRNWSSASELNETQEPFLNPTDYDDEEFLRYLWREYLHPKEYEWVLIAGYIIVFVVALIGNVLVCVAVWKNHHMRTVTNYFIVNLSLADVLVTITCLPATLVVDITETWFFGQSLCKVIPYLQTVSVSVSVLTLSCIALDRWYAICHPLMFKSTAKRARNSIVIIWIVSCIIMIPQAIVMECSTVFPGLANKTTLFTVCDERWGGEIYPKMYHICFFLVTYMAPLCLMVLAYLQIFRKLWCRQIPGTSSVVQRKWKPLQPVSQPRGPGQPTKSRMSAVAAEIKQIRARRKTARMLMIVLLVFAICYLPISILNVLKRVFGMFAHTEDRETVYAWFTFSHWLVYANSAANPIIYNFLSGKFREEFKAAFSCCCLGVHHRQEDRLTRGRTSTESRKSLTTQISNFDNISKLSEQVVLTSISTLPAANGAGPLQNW
Nature of the data set: Antagonist activity at human Ox2R overexpressed in rat Chem-1 cells assessed as inhibition of orexin A induced calcium flux at 10 uM preincubated for 15 mins followed by orexin A addition by FLIPR analysis relative to control. Format: functional, cell-based.

A short description of data set [4]: Metabolic stability in mouse liver microsomes assessed as intrinsic clearance. Format: ADME, Microsome. To be noted: read-out: CLH.
Data set [5] is described as follows: Oral bioavailability in dog. Format: ADME, organism-based, Canis lupus familiaris. The note with it: in vivo.
A short description of data set [6]: Ratio of drug concentration in brain to plasma of po and iv dosed Sprague-Dawley rat. Format: ADME, organism-based.
Data set [7] is described as follows: Ratio of unbound drug concentration in brain to plasma of po and iv dosed Sprague-Dawley rat. Format: ADME, organism-based.
The nature of data set [8]: In vivo receptor occupancy at Ox1R in Sprague-Dawley rat at 3 mg/kg, po in presence of [3H]-SB-674042 measured for 8 hrs. The data set is classed as ADME, organism-based.
Data set [9] in a line: Tmax in Sprague-Dawley rat at 3 mg/kg, po measured for 8 hrs. The note with it: in vivo. Format: ADME, organism-based.
The nature of data set [10]: Selectivity ratio of pKi for displacement of 3H-SB-674042 from human Ox1R expressed in CHO cell membranes to pKi for Ox2R (unknown origin).
A short description of data set [11]: Volume of distribution in po or iv dosed Sprague-Dawley rat. Format: ADME, organism-based. The note with it: in vivo.
Data set [12] addresses T3, Orexin receptor type 2 (Homo sapiens, UniProt O43614).
T3 sequence (O43614 whole entry): T2 sequence (whole entry)
Nature of the data set: Binding affinity to Ox2R (unknown origin).

Data set [13] is described as follows: Metabolic stability in human liver microsomes assessed as intrinsic clearance. The data set is classed as ADME, Microsome. The note with it: read-out: CLH.
Data set [14] has as its target T4, Orexin/Hypocretin receptor type 1 (Homo sapiens) (UniProt O43613).
T4 sequence (whole entry): T1 sequence (O43613 whole entry)
The note with it: CHO, Membrane, filed as antagonist.

Data set [15] in a line: Clearance in dog. To be noted: in vivo. Format: ADME, Canis lupus familiaris.
A short description of data set [16]: Oral bioavailability in Sprague-Dawley rat. The note with it: in vivo. The data set is classed as ADME, organism-based.
Data set [17] in a line: Metabolic stability in rat liver microsomes assessed as intrinsic clearance. The note with it: read-out: CLH. Format: ADME, Microsome.
In data set [18] the target is T3, Orexin receptor type 2. Nature of the data set: Antagonist activity at human Ox2R overexpressed in rat Chem-1 cells assessed as inhibition of orexin A induced calcium flux preincubated for 15 mins followed by orexin A addition by FLIPR analysis. The data set is classed as functional, cell-based.

For the compound `Cc1nc(C(F)(F)F)cnc1N[C@H]1CCC[C@@H]1NC(=O)c1ccccc1-n1nccn1`, affinity in data set [1] was put at a Ki of 20.9 nM. Also, in [2], the IC50 is 21 nM. Also, the inhibition in data set [3] is 22%.
For `CCc1nc(C(F)(F)F)cnc1N[C@H]1CCC[C@@H]1NC(=O)c1ncccc1-n1nccn1` [CVN-766], the microsomal CLint in [4] is less than 3 µL/min/mg; in data set [13], less than 3 µL/min/mg; in [17], 13 µL/min/mg. In addition, the Ki in data set [1] is 7.24 nM; in data set [12], 12900 nM. For the same compound, the values for the bioavailability in data set [5] and in data set [16] were 77% and 18%, respectively. The BPR in [6] amounted to 0.6. Besides, the “K(p,uu,brain)” value in data set [7] was determined as 0.77. The IC50 in data set [2] is 8 nM. For the same compound, the Occ in [8] amounted to 79.9%. For the same compound, the inhibition in data set [3] was 37.5%. Besides, the Tmax in [9] is 1 h. Also, in [10], the Ratio pKi is more than 1000. This compound yielded a Vd in data set [11] of 1.02 L/kg. For the same compound, the T1/2 in [14] stood at 2.2 h. The compound further had a clearance in data set [15] of 2.2 mL/min/kg.
Consider `Cc1ccc(-n2nccn2)c(C(=O)N[C@H]2CCC[C@@H]2Nc2nc3ccc(F)cc3s2)c1`, for which the figures for the IC50 in [18] and in [2] were 2460 nM and 17 nM, respectively.
`Cc1nc(C(F)(F)F)cnc1N[C@H]1CCC[C@@H]1NC(=O)c1ncccc1-n1nccn1`: the half-maximal inhibitory concentration (IC50) in data set [2] was 32 nM. In data set [3], the inhibition stood at 11.4%.
In the case of `Cc1ccc(-n2nccn2)c(C(=O)N2CCN(c3nc4cc(Cl)ccc4o3)CC[C@H]2C)c1`, the T1/2 in data set [14] was 1.25 h.
Turning to `CC(C)c1cnc(N[C@H]2CCC[C@@H]2NC(=O)c2ccccc2-n2nccn2)cn1`, the microsomal CLint in data set [4] was 403 µL/min/mg; in data set [13], 23 µL/min/mg; in data set [17], 119 µL/min/mg. In addition, in data set [3], the inhibition stood at 12%.
Regarding `Cc1ccc(-n2nccn2)c(C(=O)N[C@H]2CCC[C@@H]2Nc2cnc3ccccc3n2)c1`, the microsomal CLint in data set [4] is 442 µL/min/mg; in data set [13] it was 24 µL/min/mg; in data set [17], 335 µL/min/mg. For the same compound, the IC50 in data set [2] was 16 nM. Further, the inhibition in data set [3] (filed as antagonist) turned out to be 60%.
Regarding `C[C@]1(Nc2cnc(C(F)(F)F)cn2)CCC[C@@H]1NC(=O)c1ccccc1-n1nccn1`, the IC50 in data set [2] is 6 nM. Moreover, in [3], the inhibition was 25.3%.
As to `CCc1nc(C(F)(F)F)cnc1N[C@H]1CCC[C@@H]1NC(=O)c1ccccc1-n1nccn1`, the inhibition in [3] came to 25.6%.
In data set [1], `C[C@]1(Nc2cnc(C(F)(F)F)cn2)CCC[C@@H]1NC(=O)c1ncccc1-n1nccn1` gave a Ki of 18.2 nM. The compound also came in with a pKi in [1] (cho) of 7.74. The IC50 in data set [2] is 16 nM. Moreover, the inhibition in [3] is 21.1%.
`O=C(N[C@H]1CCC[C@@H]1Nc1cnc(C(F)(F)F)cn1)c1ccccc1-n1nccn1` had a Ki in data set [1] of 81.3 nM. In addition, the inhibition in [3] turned out to be 12%.
Consider `CCc1nc(C(F)(F)F)cnc1N[C@@H]1CCC[C@H]1NC(=O)c1ncccc1-n1nccn1`, for which the IC50 in [2] came out at 1230 nM. In addition, the inhibition in data set [3] (filed as antagonist) turned out to be 71.4%.
